These results are taken from patent US7157479B2, “Oxazol/thiazol-derivatives activators of the hPPAR-alpha receptor” (Glaxo Group Limited, priority 2001, dated 2007).

The target of one data set is T1, hPPAR alpha (Homo sapiens, UniProt Q07869).
T1 construct: expressed in transfected cells; host or cells: CV-1 cells
T1 sequence (Q07869 239-466 limits assumed): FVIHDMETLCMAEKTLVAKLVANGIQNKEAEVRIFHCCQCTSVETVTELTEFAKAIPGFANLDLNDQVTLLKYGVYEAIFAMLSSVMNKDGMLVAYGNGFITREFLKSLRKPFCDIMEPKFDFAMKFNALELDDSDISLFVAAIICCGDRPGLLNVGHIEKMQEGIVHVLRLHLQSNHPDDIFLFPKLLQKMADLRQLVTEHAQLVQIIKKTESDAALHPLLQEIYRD
The data set can be described thus: Transient transfection (transactivation) assay in CV-1 cells, hPPAR alpha. The note with it: GAL4 chimera, SPAP reporter, read-out: EC50 nM HPPARα. In kind it is cell-based. The text has this:
(§1) Compounds were screened for functional potency in transient transfection assays in CV-1 cells for their ability to activate the PPAR subtypes (transactivation assay). A previously established chimeric receptor system was utilized to allow comparison of the relative transcriptional activity of the receptor subtypes on the same target gene and to prevent endogenous receptor activation from complicating the interpretation of results. See, for example, Lehmann, J. M.; Moore, L. B.; Smith-Oliver, T. A.; Wilkison, W. O.; Willson, T. M.; Kliewer, S. A., An antidiabetic thiazolidinedione is a high affinity ligand for peroxisome proliferator-activated receptor gamma (PPARgamma), J. Biol. Chem., 1995, 270, 12953–6. The ligand binding domains for murine and human PPAR alpha, PPAR gamma, and PPAR delta were each fused to the yeast transcription factor GAL4 DNA binding domain. CV-1 cells were transiently transfected with expression vectors for the respective PPAR chimera along with0 a reporter construct containing five copies of the GAL4 DNA binding site driving expression of secreted placental alkaline phosphatase (SPAP) and β-galactosidase. After 16 h, the medium was exchanged to DME medium supplemented with 10% delipidated fetal calf serum and the test compound at the appropriate concentration. […]

For a further data set, the target named is T2, hPPAR delta (Homo sapiens, UniProt Q03181).
T2 construct: expressed in transfected cells; host or cells: CV-1 cells
T2 sequence (Q03181 211-439 limits assumed): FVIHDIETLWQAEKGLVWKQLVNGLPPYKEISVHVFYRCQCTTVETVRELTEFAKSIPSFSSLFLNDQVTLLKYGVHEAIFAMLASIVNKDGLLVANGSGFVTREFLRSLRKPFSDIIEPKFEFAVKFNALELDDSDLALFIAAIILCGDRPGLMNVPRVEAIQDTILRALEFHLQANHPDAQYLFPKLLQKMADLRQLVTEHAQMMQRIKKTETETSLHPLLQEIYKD
The data set can be described thus: Transient transfection (transactivation) assay in CV-1 cells, hPPAR delta. Format: cell-based. As to conditions: GAL4 chimera, SPAP reporter, read-out: EC50 nM HPPARδ.
From the text: as §1

A further data set deals with T3, hPPAR gamma (Homo sapiens, UniProt P37231).
T3 construct: expressed in transfected cells; host or cells: CV-1 cells
T3 sequence (P37231 238-503 limits assumed): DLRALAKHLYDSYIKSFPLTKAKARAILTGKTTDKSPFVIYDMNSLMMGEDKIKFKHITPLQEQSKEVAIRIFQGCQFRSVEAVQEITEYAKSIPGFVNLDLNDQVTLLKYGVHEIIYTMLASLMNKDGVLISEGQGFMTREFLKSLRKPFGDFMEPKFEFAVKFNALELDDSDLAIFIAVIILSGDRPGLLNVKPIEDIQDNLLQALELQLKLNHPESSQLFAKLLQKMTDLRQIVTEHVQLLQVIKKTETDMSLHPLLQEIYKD
The data set can be described thus: Transient transfection (transactivation) assay in CV-1 cells, hPPAR gamma. In kind it is cell-based. The note with it: GAL4 chimera, SPAP reporter, read-out: EC50 nM HPPARy.
From the text: as §1

Consider `CCc1ccc(-c2sc(C(=O)NCc3ccc(OC(C)(C)C(=O)O)cc3)nc2C)cc1` [Example 2, 2-methyl-2–[4-{[(4-methyl-5-[4-ethylphenyl]thiazol-2-ylcarbonyl)amino]methyl}phenoxy]propionic Acid], for which the EC50 – broadly, the concentration needed to bring the measured effect to its halfway point – on hPPAR alpha is 5 nM; at hPPAR delta, 8740 nM; at hPPAR gamma, 700 nM.
On to `CCOC(=O)C(C)(C)Oc1ccc(CNC(=O)c2nc(C)c(-c3ccc(F)cc3)s2)cc1` [Example 3, 2-methyl-2-[4-{[(4-methyl-5-[4-fluorophenyl]thiazol-2-ylcarbonyl)amino]methyl}phenoxy]propionic Acid Ethyl Ester], for which the melting point – broadly, the temperature, or range, at which the solid turns liquid – is 97 °C.
Compound `Cc1nc(C(=O)NCc2ccc(OC(C)(C)C(=O)O)cc2)sc1-c1ccc(F)cc1` [Example 4, 2-methyl-2-[4-{[(4-methyl-5-[4-fluorophenyl]thiazol-2-ylcarbonyl)amino]methyl}phenoxy]propionic Acid] registered a melting point of 122 °C. For the same compound, at hPPAR alpha, the EC50 stood at 61 nM. Further, the EC50 at hPPAR delta is 10000 nM. For the same compound, the EC50 on hPPAR gamma came to 5880 nM.
